The values that follow come from patent US11932850B2, “Cancer chemoprevention with STAT3 blockers” (Jill M. Siegfried, LLC, priority 2018, dated 2024).

The subject of data set [1] is c-Myc in H1975-derived tumors. In words: c-Myc expression in H1975 xenograft tumors (Western blot). It is filed as in vivo, nude mice. To be noted: H1975 xenograft tumors, range among individual tumors. How it is done: FIGS. 7C and 7D show c-Myc is suppressed after CS3D treatment in vivo. At the end of the treatments, tumors were harvested, whole cell lysates were prepared and RNA extracted for target gene analysis by Western blotting and RT-qPCR GAPDH protein was used as internal loading control for immunoblotting. CS3D treated tumors (C4, C5, and C6) from separate animals show a decrease in c-Myc expression level relative to the CS3M-treated group (C1, C2, and C3) in 201T. […] Data are shown as mean+/−SEM.
To determine how CS3D blocks NSCLC growth, Western blot, qRT-PCR, and immunohistochemical analysis were performed to determine expression of c-Myc in residual tumors. These analyses identified a substantial downregulation of c-Myc protein (FIGS. 7C and 7D) and mRNA levels (FIG. 7E) in individual CS3D-treated tumors relative to CS3M-treated tumors in both 201T and H1975 xenografts. Some variability in protein levels among individual xenografts was observed (FIGS. 7C and 7D); the densitometry units for c-Myc protein after normalizing for GAPDH levels ranged from 0.11-0.16 units for CS3D-treated xenografts and 0.25-0.46 units for CS3M-treated tumors in H1975. Similarly, in 201T-derived tumors these measurements ranged from 0.015 to 0.51 units for CS3D and 0.28 to 0.97 units for CS3M. Even with this variability, the effect across the groups in both cell lines was significant (P<0.05 for H1975 and P<0.042 for 201T xenografts), with a mean decrease of 65% and 70%, respectively.

Data set [2] relates to M1 macrophages, M2 macrophages, MDSCs. In words: Flow cytometry of immune cells isolated from lungs of NNK mice. Particulars: NNK 4 weeks then 1 week of drug administration. It is filed as in vivo. The text has this:
STAT3 also plays a central role in immune evasion. STAT3 specifically orchestrates immunosuppression by promoting M2 macrophage and myeloid-derived suppressor cells (MDSCs) activity while suppressing M1 macrophage function [Su et al. Int. J. Mol. Science 19: pll:E1803, 2018]. Thus STAT3 inhibition by CS3D should favor an antitumor immune response by enhancing M1 macrophage activity.
Lungs from mice were digested with RPMI media containing collagenase and DNase to obtained single cell suspension. The cells were counted and 1×10^6 cells were staining with fluorescent labeled CD45, CD11b, MHC II, Ly6C and F4/80. The labeled cells were gated and data acquired on LSR fortessa (BD Biosciences) and further analysed by Flowjo.
In general terms: In flow cytometry, cells or beads pass a laser one at a time.

The subject of data set [3] is cleaved caspase-3 in H1975 xenografts. In words: IHC of cleaved caspase-3 in H1975 xenografts at end of treatment. To be noted: after last day of treatment (day 14). It is filed as in vivo, nude mice. The text has this: For mRNA levels in tumor lysates, CS3D produced a 60-70% reduction of c-Myc gene expression relative to GAPDH compared to CS3M (FIG. 7E). […] Some cleaved caspase 3 staining was localized in nuclei, where caspase-3 is known to be active. Some caspase 3 staining was also evident in fibroblasts.
Immunohistochemical analysis: Tumors were excised for immunohistochemical (IHC) staining; 5-μm (micron) sections were cut from formalin-fixed paraffin-embedded tissue blocks, deparaffinized and rehydrated using successive washes of xylene followed by ethanol. Antigen retrieval was performed in a microwave oven (for 20 minutes) in an unmasking solution containing sodium citrate buffer followed by peroxidase blocking in 3% hydrogen peroxide. The sections were incubated in ABC blocking buffer (Vector laboratories Inc, Burlingame, California) for 1 hour at room temperature. Sections were then stained with H&E (hematoxylin and eosin) or subjected to sequential incubations with different primary antibodies and peroxidase-conjugated goat anti-rabbit secondary antibodies. […] Staining was graded as low (<30% positive cells per field, scored as 1), moderate (30-60% positive cells per field, scored as 2) or high (>60% positive cells per field, scored as 3).

The next data set concerns the target STAT3 (Homo sapiens, UniProt P40763). To be noted: Leong et al., 2003; cited from earlier work.
Data set [4] has as its system Ki-67, p-STAT3, NF-κB in H1975 xenografts. The experiment in a line: IHC of H1975 xenografts after 5 daily iv injections. It is filed as in vivo, nude mice. To be noted: H1975 xenografts. How it is done:
Because tumors treated for several weeks with the STAT3 decoy were largely composed of debris (as illustrated in FIG. 11), xenografts were examined after only 5 daily tail vein injections to determine what cellular changes were induced prior to collapse of the intracellular tumor structure. […] Tumors derived from H1975 xenografs were analyzed by immunohistochemical staining for p-STAT3 after 5 daily iv injections of either STAT3 decoy or mutant decoy. […] This effect is quantified in FIG. 9B.
Images were captured at 40× magnification. A shift from 41% of cells was observed and scored as high-grade staining with CS3M treatment to 13% with high-grade staining in the presence of CS3D, with corresponding increases in moderate- and low-grade staining in the STAT3 decoy treated group (FIG. 12B). […] Bright field images were captured at 40× magnification. Frequency of high-grade staining for p-STAT3 differed between CS3D and CS3M treatment groups (23% in CS3D-treated and 51% in CS3M treated, with corresponding increase in low-grade staining in presence of the active decoy (FIG. 9B). Significant degradation of p-STAT3 protein was detected by IHC in tumors was observed after treatment with CS3D. Percent of high staining fields was reduced from 48% to 22% while percent of fields with low staining increased, P<0.001 (FIG. 9B).
Immunohistochemical analysis: Tumors were excised for immunohistochemical (IHC) staining; 5-μm (micron) sections were cut from formalin-fixed paraffin-embedded tissue blocks, deparaffinized and rehydrated using successive washes of xylene followed by ethanol. Antigen retrieval was performed in a microwave oven (for 20 minutes) in an unmasking solution containing sodium citrate buffer followed by peroxidase blocking in 3% hydrogen peroxide. The sections were incubated in ABC blocking buffer (Vector laboratories Inc, Burlingame, California) for 1 hour at room temperature. Sections were then stained with H&E (hematoxylin and eosin) or subjected to sequential incubations with different primary antibodies and peroxidase-conjugated goat anti-rabbit secondary antibodies. The following primary antibodies were used (at the indicated dilutions): cleaved caspase-3 (#9664, Cell Signaling, 1:300), p-STAT3 (#9145, Cell Signaling, 1:400), Ki67 (#ab15580, Abcam, 1:1000). Sections were developed with DAB and counterstained with hematoxylin. Bright field microscopy was performed using Leica DM 4000 B LED microscope and images were captured at 20× and 40× magnification using LASv4.7 software. IHC analysis was done as a blinded study with 100 images from each treatment group graded as low, moderate, or high. Staining was graded as low (<30% positive cells per field, scored as 1), moderate (30-60% positive cells per field, scored as 2) or high (>60% positive cells per field, scored as 3).

For data set [5], the target named is T1, pSTAT3-ubiquitin complexes in H1975 cells (Homo sapiens, UniProt P40763).
T1 construct: Post-transfection with either 100 nM CS3D or CS3M, H1975 were lysed in IP lysis buffer; endogenous in cells; host or cells: H1975
In words: p-STAT3 immunoprecipitation and ubiquitin immunoblot. Format: cell-based. Particulars: H1975, 100 nM, 24 hr post-transfection. Background: In western blotting, separated proteins are transferred to a membrane and probed.

STAT3, sequence (P40763 whole entry, species assumed): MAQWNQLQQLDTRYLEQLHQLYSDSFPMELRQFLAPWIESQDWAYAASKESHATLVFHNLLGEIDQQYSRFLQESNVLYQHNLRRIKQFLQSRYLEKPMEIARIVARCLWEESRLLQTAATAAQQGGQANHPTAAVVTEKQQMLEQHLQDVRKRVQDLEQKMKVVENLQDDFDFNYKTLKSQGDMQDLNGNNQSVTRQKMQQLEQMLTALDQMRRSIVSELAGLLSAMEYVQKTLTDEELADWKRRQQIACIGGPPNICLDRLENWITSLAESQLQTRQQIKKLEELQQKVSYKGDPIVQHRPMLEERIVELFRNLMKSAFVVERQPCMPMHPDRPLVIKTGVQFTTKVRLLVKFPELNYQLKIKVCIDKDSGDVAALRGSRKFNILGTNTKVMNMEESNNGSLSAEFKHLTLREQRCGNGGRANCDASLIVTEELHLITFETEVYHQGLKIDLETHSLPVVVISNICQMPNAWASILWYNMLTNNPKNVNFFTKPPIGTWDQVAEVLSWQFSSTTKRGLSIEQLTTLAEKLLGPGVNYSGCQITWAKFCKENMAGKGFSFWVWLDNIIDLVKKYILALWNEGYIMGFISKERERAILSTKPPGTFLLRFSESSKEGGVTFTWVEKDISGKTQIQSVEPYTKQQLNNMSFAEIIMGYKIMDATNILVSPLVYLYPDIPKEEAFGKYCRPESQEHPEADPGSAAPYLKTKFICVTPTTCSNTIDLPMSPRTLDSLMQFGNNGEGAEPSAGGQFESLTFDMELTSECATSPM
T1 sequence (P40763 2-770 limits assumed, one chain of several): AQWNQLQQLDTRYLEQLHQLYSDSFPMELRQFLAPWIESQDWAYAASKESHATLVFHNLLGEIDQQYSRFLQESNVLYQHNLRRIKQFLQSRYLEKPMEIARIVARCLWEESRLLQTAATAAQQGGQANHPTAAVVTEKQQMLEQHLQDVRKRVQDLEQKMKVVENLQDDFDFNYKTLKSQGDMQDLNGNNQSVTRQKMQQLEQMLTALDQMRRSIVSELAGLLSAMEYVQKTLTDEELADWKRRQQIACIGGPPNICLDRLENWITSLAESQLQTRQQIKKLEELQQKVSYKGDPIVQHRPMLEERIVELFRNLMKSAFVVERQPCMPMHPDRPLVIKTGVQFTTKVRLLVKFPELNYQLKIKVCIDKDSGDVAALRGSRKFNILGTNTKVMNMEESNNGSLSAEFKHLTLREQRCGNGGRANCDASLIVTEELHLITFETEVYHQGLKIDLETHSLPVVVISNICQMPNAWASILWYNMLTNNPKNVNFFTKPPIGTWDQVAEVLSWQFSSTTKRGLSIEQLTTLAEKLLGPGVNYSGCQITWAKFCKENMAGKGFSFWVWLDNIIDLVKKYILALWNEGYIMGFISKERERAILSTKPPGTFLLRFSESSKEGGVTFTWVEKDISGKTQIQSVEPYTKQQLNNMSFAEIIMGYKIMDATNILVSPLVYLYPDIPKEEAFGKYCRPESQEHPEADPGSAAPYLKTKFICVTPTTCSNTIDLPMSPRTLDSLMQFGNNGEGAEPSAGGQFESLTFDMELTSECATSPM

For “CS3M: mutant inactive control of CS3D, T-A base pair replacing G-C base pair at position 9 (SEQ ID NO. 6); unable to bind STAT3 (GATTTAAGGGAAATGCSCATTTCCC; cyclic decoy, mutant control, further chemistry not given here) [reference compound]”, in data set [1], the “c-Myc protein densitometry normalized for GAPDH” value is 0.25-0.46 units. In data set [2], this substance showed an M2 macrophages of 18.3% and an MDSCs of 4.56%. The “fields scoring high level of cleaved caspase-3” value in data set [3] was determined as 10%. The “binding to STAT3” value with STAT3 is listed as “unable to bind STAT3”. This substance also came in with a Ki-67 high-grade staining in data set [4] (5 daily injections) of 41%. Moreover, the “frequency of high-grade staining for p-STAT3” value in data set [4] (5 daily iv injections) was determined as 51%. Moreover, the “percent of high staining fields for p-STAT3” value in data set [4] (second statement in b134 (FIG. 9B)) was 48%. Besides, the “ratio of pSTAT3-ubiquitin complex to STAT3 (densitometry)” value in data set [5] came to 0.74.
